Test results as given in the NIST ThermoML archive (doi:10.1016/j.fluid.2012.05.006).
Numbers after ± are expanded uncertainties.

Assay: activity coefficient (dimensionless); of the first substance listed, at infinite dilution; xn = mol fraction of the nth substance listed
Settings: Liquid, Chromatography, x1 = 0

SMILES	activity coefficient (303.15 K)	activity coefficient (313.15 K)	activity coefficient (323.15 K)	activity coefficient (333.15 K)	activity coefficient (343.15 K)	activity coefficient (353.15 K)	activity coefficient (363.15 K)	activity coefficient (303.15 K, 101 kPa)	activity coefficient (313.15 K, 101 kPa)	activity coefficient (323.15 K, 101 kPa)	activity coefficient (333.15 K, 101 kPa)	activity coefficient (343.15 K, 101 kPa)	activity coefficient (353.15 K, 101 kPa)	activity coefficient (363.15 K, 101 kPa)
ClCCl [dichloromethane] + CCCCCCCCn1cc[n+](C)c1.O=[N+]([O-])[O-]	0.32 ± 0.09	0.33 ± 0.09	0.34 ± 0.09	0.36 ± 0.09	0.37 ± 0.09	0.38 ± 0.09	0.39 ± 0.09							
ClC(Cl)(Cl)Cl [tetrachloromethane] + CCCCCCCCn1cc[n+](C)c1.O=[N+]([O-])[O-]	1.16 ± 0.09	1.2 ± 0.09	1.24 ± 0.09	1.27 ± 0.1	1.3 ± 0.1	1.35 ± 0.1	1.39 ± 0.1							
c1ccccc1 [benzene] + CCCCCCCCn1cc[n+](C)c1.O=[N+]([O-])[O-]	0.94 ± 0.09	0.96 ± 0.09	0.97 ± 0.09	0.98 ± 0.09	0.99 ± 0.09	1 ± 0.09	1.01 ± 0.09							
CCCCCCCCC [nonane] + CCCCCCCCn1cc[n+](C)c1.O=[N+]([O-])[O-]	23.1 ± 0.83	21.8 ± 0.78	20.9 ± 0.75	20.1 ± 0.72	19.6 ± 0.7	18.6 ± 0.67	18.2 ± 0.65							
ClC(Cl)Cl [trichloromethane] + CCCCCCCCn1cc[n+](C)c1.O=[N+]([O-])[O-]	0.17	0.18	0.19 ± 0.09	0.2 ± 0.09	0.21 ± 0.09	0.22 ± 0.09	0.23 ± 0.09							
CCOC(C)=O [ethyl acetate] + CCCCCCCCn1cc[n+](C)c1.O=[N+]([O-])[O-]	1.65 ± 0.1	1.64 ± 0.1	1.63 ± 0.1	1.63 ± 0.1	1.62 ± 0.1	1.61 ± 0.1	1.6 ± 0.1							
CC(C)=O [acetone] + CCCCCCCCn1cc[n+](C)c1.O=[N+]([O-])[O-]	0.84 ± 0.09	0.83 ± 0.09	0.81 ± 0.09	0.79 ± 0.09	0.77 ± 0.09	0.76 ± 0.09	0.74 ± 0.09							
CC1CCCCC1 [methylcyclohexane] + CCCCCCCCn1cc[n+](C)c1.O=[N+]([O-])[O-]	7.91 ± 0.28	7.7 ± 0.27	7.37 ± 0.26	7.11 ± 0.25	6.81 ± 0.24	6.62 ± 0.23	6.41 ± 0.23							
Cc1ccc(C)cc1 [1,4-dimethylbenzene] + CCCCCCCCn1cc[n+](C)c1.O=[N+]([O-])[O-]	1.98 ± 0.11	1.99 ± 0.11	2 ± 0.11	2.01 ± 0.11	2.01 ± 0.11	2.02 ± 0.11	2.03 ± 0.11							
CO [methanol] + CCCCCCCCn1cc[n+](C)c1.O=[N+]([O-])[O-]	0.26 ± 0.09	0.26 ± 0.09	0.25 ± 0.09	0.24 ± 0.09	0.23 ± 0.09	0.23 ± 0.09	0.22 ± 0.09							
CCCCCCCC [octane] + CCCCCCCCn1cc[n+](C)c1.O=[N+]([O-])[O-]	17.9 ± 0.64	17 ± 0.61	16.2 ± 0.58	15.7 ± 0.56	15.2 ± 0.54	14.8 ± 0.53	14.1 ± 0.5							
Cc1cccc(C)c1 [1,3-dimethylbenzene] + CCCCCCCCn1cc[n+](C)c1.O=[N+]([O-])[O-]	2.02 ± 0.11	2.03 ± 0.11	2.05 ± 0.11	2.06 ± 0.11	2.07 ± 0.11	2.08 ± 0.11	2.09 ± 0.11							
CCCCCC [hexane] + CCCCCCCCn1cc[n+](C)c1.O=[N+]([O-])[O-]	12.1 ± 0.43	11.2 ± 0.4	10.5 ± 0.37	9.74 ± 0.35	9.05 ± 0.32	8.5 ± 0.3	8.16 ± 0.29							
C1CCOC1 [tetrahydrofuran] + CCCCCCCCn1cc[n+](C)c1.O=[N+]([O-])[O-]	1.03 ± 0.09	1.02 ± 0.09	1.01 ± 0.09	1 ± 0.09	0.99 ± 0.09	0.98 ± 0.09	0.97 ± 0.09							
C1CCCCC1 [cyclohexane] + CCCCCCCCn1cc[n+](C)c1.O=[N+]([O-])[O-]	6.52 ± 0.23	6.27 ± 0.22	5.89 ± 0.21	5.58 ± 0.2	5.27 ± 0.19	5.09 ± 0.19	4.93 ± 0.18							
CCCCC [pentane] + CCCCCCCCn1cc[n+](C)c1.O=[N+]([O-])[O-]	8.5 ± 0.3	7.8 ± 0.28	7.45 ± 0.26	6.94 ± 0.25	6.46 ± 0.23	6.19 ± 0.22	5.77 ± 0.21							
CCc1ccccc1 [ethylbenzene] + CCCCCCCCn1cc[n+](C)c1.O=[N+]([O-])[O-]								2.05 ± 0.11	2.06 ± 0.11	2.06 ± 0.11	2.07 ± 0.11	2.07 ± 0.11	2.08 ± 0.11	2.09 ± 0.11
CCO [ethanol] + CCCCCCCCn1cc[n+](C)c1.O=[N+]([O-])[O-]	0.38 ± 0.09	0.37 ± 0.09	0.35 ± 0.09	0.34 ± 0.09	0.33 ± 0.09	0.31 ± 0.09	0.3 ± 0.09							
CC(C)CC(C)(C)C [2,2,4-trimethylpentane] + CCCCCCCCn1cc[n+](C)c1.O=[N+]([O-])[O-]	18.5 ± 0.66	16.8 ± 0.6	15.4 ± 0.55	14.1 ± 0.51	13.3 ± 0.48	12.3 ± 0.44	11.4 ± 0.41							
Cc1ccccc1 [toluene] + CCCCCCCCn1cc[n+](C)c1.O=[N+]([O-])[O-]	1.41 ± 0.1	1.41 ± 0.1	1.42 ± 0.1	1.43 ± 0.1	1.44 ± 0.1	1.45 ± 0.1	1.46 ± 0.1							
CC#N [acetonitrile] + CCCCCCCCn1cc[n+](C)c1.O=[N+]([O-])[O-]	0.6 ± 0.09	0.59 ± 0.09	0.58 ± 0.09	0.57 ± 0.09	0.56 ± 0.09	0.55 ± 0.09	0.54 ± 0.09							
Cc1ccccc1C [1,2-dimethylbenzene] + CCCCCCCCn1cc[n+](C)c1.O=[N+]([O-])[O-]	1.75 ± 0.1	1.77 ± 0.1	1.79 ± 0.11	1.8 ± 0.11	1.82 ± 0.11	1.84 ± 0.11	1.85 ± 0.11							
CC(C)O [propan-2-ol] + CCCCCCCCn1cc[n+](C)c1.O=[N+]([O-])[O-]	0.44 ± 0.09	0.43 ± 0.09	0.43 ± 0.09	0.42 ± 0.09	0.41 ± 0.09	0.41 ± 0.09	0.4 ± 0.09							
CCCO [propan-1-ol] + CCCCCCCCn1cc[n+](C)c1.O=[N+]([O-])[O-]		0.41 ± 0.09	0.4 ± 0.09	0.38 ± 0.09	0.37 ± 0.09	0.36 ± 0.09	0.35 ± 0.09							
CCCCCCC [heptane] + CCCCCCCCn1cc[n+](C)c1.O=[N+]([O-])[O-]	15.4 ± 0.55	14.3 ± 0.51	13.3 ± 0.48	12.3 ± 0.44	11.8 ± 0.42	11.2 ± 0.4	10.4 ± 0.37							
